# From patent US20240251801A1, “COMPOSITIONS AND METHODS FOR IMPROVING PLANT HEALTH AND CONTROLLING PLANT DISEASE” (AgBiome, Inc., priority 2021, published 2024)
# How the values were obtained:
# Phakopsora pachyrhizi [1] = experiment: Soybean leaf disk assay, control of Asian soybean rust; type: in vivo; conditions: soybean leaf disks, strain 1×10^8 CFU/mL, azoxystrobin 0.5 ppm
# Description: For detached-leaf assays performed in the following examples, bacterial strains stored in a freezer (−80° C.) were each streaked onto Luria Bertani (LB) agar (25 g LB broth and 15 g agar per liter of deionized water) in an 8.5-cm diameter plastic plate. A single colony from the plate was picked and placed in 50 ml of either LB liquid broth or a liquid broth consisting of NaCl (5 g), tryptone (10 g), nutrient broth (8 g), CaCl2 (0.14 mM), MgCl2·6H2O (0.2 mM), and MnCl2·4H2O (0.01 mM) per liter of deionized water in a 250-ml flask. Calcium chloride (CaCl2), MgCl2, and MnCl2 were filtered sterilized using 0.22 μm vacuum filter and were then added to NaCl, tryptone, nutrient broth (which were autoclaved together). Cultures were harvested after 48 h by pelleting cells and re-suspending to original volume in sterile H2O. Colony forming units (CFU/mL) were determined using standard dilution plate count method, and plates were inspected for signs of contamination. Sterile distilled water was added to achieve a final concentration needed in detached-leaf or growth chamber strain evaluations.
# The susceptible soybean cultivar Williams 82 was used in strain evaluation using the detached-leaf technique (Twizeyimana and Hartman, 2010). […]
# Data recorded were numbers of uredinia in 1-cm diameter circle recorded 14 days after inoculation. […]
# Phakopsora pachyrhizi [2] = experiment: Soybean leaf disc assay with wettable powder formulations, control of Asian soybean rust; type: in vivo; conditions: soybean leaf discs, 150 μL, azoxystrobin 0.25 ppm as control
# Description: For the tray drying method, 829 grams of cell paste obtained from a liquid culture of ATP15329 was mixed with 18.24 g of glycerol and 72.95 g of microcel E using a food processor. Half of the cell paste was dried at 40° C. to a water activity of less than 0.30, at which time it contained 3.53E11 CFU/g. The other half was dried at 25° C. and 50% RH to a water activity of less than 0.6, at which time it contained 4.75E11 CFU/g. The dried powder formulation was stored in heat sealed mylar pouches at 4° C.
# For the spray drying method, 200 grams of cell paste obtained from a liquid culture of ATP15329 was mixed with 22 g of skim milk powder using an emulsion blender. This material was spray dried at outlet temperature of 70° C., at which time it contained 7.86E10 CFU/g. The dried powder formulation was stored in heat sealed mylar pouches at 4° C.
# This evaluation followed the protocol used in Example 5. Briefly, leaf disks were each sprayed with 150 μL of different formulations of the bacterial strain AIP015329, azoxystrobin (0.25 ppm) (fungicide control) on the abaxial surface with 150 μl using a fingertip sprayer (Container & Packaging Supply, Eagle, ID) fitted to a 15 mL conical centrifuge tube. Leaf disks were placed adaxial side down on saturated 20×20 cm filter paper in a plastic container (Blister Box 20×20 cm, Placon, Madison, WI); two filter papers were used per box. Boxes with leaf disks were incubated at room temperature in the dark, 24 hours later, leaf disks in the box were inoculated as described earlier. Inoculated and non-inoculated/not treated controls were added. After inoculation, boxes were maintained and incubated as described in the first-round evaluations.
# Data recorded were numbers of uredinia in 1-cm diameter circle recorded 14 days after inoculation. […] Data were analyzed using analysis of variance (ANOVA) in PROC GLM of SAS (version 9.4; SAS Institute Inc., Cary, NC) and significant differences (P<0.05) were observed among treatments (Table 9).
compound,measurement,setting,value
"CO/C=C(/C(=O)OC)c1ccccc1Oc1cc(Oc2ccccc2C#N)ncn1 [Azoxystrobin, azoxystrobin]",Disease Control (%) Confirmation,Phakopsora pachyrhizi [1]; confirmation,95.7 (a) %
same,Disease Control (%) Primary Screen,Phakopsora pachyrhizi [1]; uredinia counted 14 days after inoculation,99.8 (a) %
same,Disease Control (%) Spray dry,"Phakopsora pachyrhizi [2]; spray dried formulation of the strain, 14 days after inoculation",100 (a) %
same,Disease Control (%) Tray dry Dried at 25° C.,Phakopsora pachyrhizi [2]; tray dried formulation dried at 25° C.,100 (a) %
same,Disease Control (%) Tray dry Dried at 40° C.,Phakopsora pachyrhizi [2]; tray dried formulation dried at 40° C.,100 (a) %
